From PMC3743865, “The FLT3 Inhibitor Quizartinib Inhibits ABCG2 at Pharmacologically Relevant Concentrations, with Implications for Both Chemosensitization and Adverse Drug Interactions” (PLoS ONE, 2013)

Assays:
[1] = target: ABCB1 (Homo sapiens, UniProt P08183); assay: biochemical
[2] = target: T1, ABCG2 (Homo sapiens, UniProt Q9UNQ0); assay: biochemical
T1 sequence (Q9UNQ0 1-655): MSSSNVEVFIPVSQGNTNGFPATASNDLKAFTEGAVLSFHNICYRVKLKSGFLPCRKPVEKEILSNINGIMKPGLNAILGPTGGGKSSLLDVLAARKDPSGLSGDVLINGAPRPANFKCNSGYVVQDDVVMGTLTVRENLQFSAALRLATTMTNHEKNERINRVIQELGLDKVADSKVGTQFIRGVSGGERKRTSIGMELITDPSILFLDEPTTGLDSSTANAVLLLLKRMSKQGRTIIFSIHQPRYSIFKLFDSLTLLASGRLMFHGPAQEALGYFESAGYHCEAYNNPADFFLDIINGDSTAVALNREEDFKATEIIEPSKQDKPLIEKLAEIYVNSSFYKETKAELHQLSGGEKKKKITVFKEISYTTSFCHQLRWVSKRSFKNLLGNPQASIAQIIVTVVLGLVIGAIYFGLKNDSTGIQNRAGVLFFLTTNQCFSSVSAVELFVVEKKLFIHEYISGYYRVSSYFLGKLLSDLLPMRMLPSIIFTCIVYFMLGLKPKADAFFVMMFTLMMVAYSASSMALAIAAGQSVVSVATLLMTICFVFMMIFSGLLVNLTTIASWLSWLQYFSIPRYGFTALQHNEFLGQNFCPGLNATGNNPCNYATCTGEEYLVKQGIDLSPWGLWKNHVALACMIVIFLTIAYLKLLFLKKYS

ABCB1, sequence (P08183 whole entry): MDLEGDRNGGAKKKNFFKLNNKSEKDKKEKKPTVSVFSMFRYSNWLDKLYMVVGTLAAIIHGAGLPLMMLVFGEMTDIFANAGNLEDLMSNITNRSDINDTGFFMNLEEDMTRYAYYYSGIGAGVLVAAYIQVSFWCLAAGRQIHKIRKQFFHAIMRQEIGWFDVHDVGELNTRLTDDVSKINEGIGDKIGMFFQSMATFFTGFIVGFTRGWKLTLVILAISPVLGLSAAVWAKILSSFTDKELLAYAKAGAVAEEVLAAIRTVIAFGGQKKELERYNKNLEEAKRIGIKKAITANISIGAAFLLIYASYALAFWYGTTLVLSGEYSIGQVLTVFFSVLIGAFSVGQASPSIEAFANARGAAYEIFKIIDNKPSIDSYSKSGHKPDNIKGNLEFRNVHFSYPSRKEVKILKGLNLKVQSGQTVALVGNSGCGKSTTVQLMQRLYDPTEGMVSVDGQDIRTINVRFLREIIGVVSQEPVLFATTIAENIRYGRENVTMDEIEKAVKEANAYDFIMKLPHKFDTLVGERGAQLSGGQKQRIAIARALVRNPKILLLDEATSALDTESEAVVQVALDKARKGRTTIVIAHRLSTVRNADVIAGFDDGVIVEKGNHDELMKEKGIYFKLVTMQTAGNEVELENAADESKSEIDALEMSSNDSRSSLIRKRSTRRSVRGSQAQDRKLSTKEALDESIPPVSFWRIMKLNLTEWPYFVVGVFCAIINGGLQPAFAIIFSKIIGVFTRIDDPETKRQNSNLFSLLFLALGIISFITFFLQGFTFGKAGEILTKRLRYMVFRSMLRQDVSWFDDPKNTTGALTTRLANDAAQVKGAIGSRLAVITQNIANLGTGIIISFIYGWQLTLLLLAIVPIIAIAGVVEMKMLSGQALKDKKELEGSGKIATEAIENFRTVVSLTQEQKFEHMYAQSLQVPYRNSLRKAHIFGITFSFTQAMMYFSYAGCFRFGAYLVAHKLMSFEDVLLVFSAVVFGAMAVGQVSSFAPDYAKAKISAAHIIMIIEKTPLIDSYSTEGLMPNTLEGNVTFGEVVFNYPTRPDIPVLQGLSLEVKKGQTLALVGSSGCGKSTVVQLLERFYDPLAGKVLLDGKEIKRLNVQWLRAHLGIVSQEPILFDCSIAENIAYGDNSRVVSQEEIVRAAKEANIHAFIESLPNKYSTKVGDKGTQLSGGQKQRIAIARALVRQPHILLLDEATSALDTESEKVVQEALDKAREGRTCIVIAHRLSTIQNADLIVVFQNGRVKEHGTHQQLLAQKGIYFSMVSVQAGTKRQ

Q: `CC(C)(C)c1cc(NC(=O)Nc2ccc(-c3cn4c(n3)sc3cc(OCCN5CCOCC5)ccc34)cc2)no1` [quizartinib] was tested. Which IC50 [1] did it give?
A: Its IC50 is 3.3 µM.

Q: And the IC50 [2]?
A: Its IC50 is 0.07 µM.
